Experimental data taken from ChEMBL document CHEMBL5058564, “EUbOPEN Chemogenomics Library 2 (Incucyte)” (2022).
Where a SMILES comes first, the peptide text is derived from it. [ ]: non-standard residue; d: D form. The star is where a group is joined. dPhe(4-NHCONH2) = NC(=O)Nc1ccc(C[C@@H](N)C(=O)O)cc1; Dihydroorotyl(S) = O=C1C[C@@H](C(=O)*)NC(=O)N1; dPhe(4-Cl) = N[C@H](Cc1ccc(Cl)cc1)C(=O)O; Phe(4-NH2) = Nc1ccc(C[C@H](N)C(=O)O)cc1; d2Nal = N[C@H](Cc1ccc2ccccc2c1)C(=O)O; Lys(iPr) = CC(C)NCCCC[C@H](N)C(=O)O; d3Pal = N[C@H](Cc1cccnc1)C(=O)O

Assays:
Format in all cases: toxicity, cell-based
Fibroblast = experiment: Incucyte cell viability with human fibroblast; settings: 10 µM, compound concentration 10 uM
HEK-293T = experiment: Incucyte cell viability with HEK293T; settings: human, 10 µM, compound concentration 10 uM
U2OS = experiment: Incucyte cell viability with U2OS; settings: human, 10 µM, compound concentration 10 uM
[1] = 0 h, replicate number 1, timepoint 0 hours
[2] = 0 h, replicate number 2, timepoint 0 hours
[3] = 6 h, replicate number 1, timepoint 6 hours
[4] = 12 h, replicate number 1, timepoint 12 hours
[5] = 18 h, replicate number 1, timepoint 18 hours
[6] = 24 h, replicate number 1, timepoint 24 hours
[7] = 24 h, replicate number 2, timepoint 24 hours
[8] = 6 h, replicate number 2, timepoint 6 hours
[9] = 18 h, replicate number 2, timepoint 18 hours
[10] = 12 h, replicate number 2, timepoint 12 hours
Further: unitless GR value; below 1 slowed growth and below 0 cell loss.

Row | SMILES | Growth Rate (Fibroblast; [1]) | Growth Rate (Fibroblast; [2]) | Growth Rate (HEK-293T; [1]) | Growth Rate (U2OS; [1]) | Growth Rate (Fibroblast; [3]) | Growth Rate (HEK-293T; [4]) | Growth Rate (HEK-293T; [5]) | Growth Rate (HEK-293T; [6]) | Growth Rate (HEK-293T; [7]) | Growth Rate (U2OS; [2]) | Growth Rate (U2OS; [8]) | Growth Rate (U2OS; [9]) | Growth Rate (HEK-293T; [2]) | Growth Rate (HEK-293T; [3]) | Growth Rate (U2OS; [3]) | Growth Rate (U2OS; [5]) | Growth Rate (Fibroblast; [4]) | Growth Rate (Fibroblast; [10]) | Growth Rate (U2OS; [6]) | Growth Rate (Fibroblast; [8]) | further results
1 | CC(=O)N[C@H](Cc1ccc2ccccc2c1)C(=O)N[C@H](Cc1ccc(Cl)cc1)C(=O)N[C@H](Cc1cccnc1)C(=O)N[C@@H](CO)C(=O)N[C@@H](Cc1ccc(NC(=O)[C@@H]2CC(=O)NC(=O)N2)cc1)C(=O)N[C@H](Cc1ccc(NC(N)=O)cc1)C(=O)N[C@@H](CC(C)C)C(=O)N[C@@H](CCCCNC(C)C)C(=O)N1CCC[C@H]1C(=O)N[C@H](C)C(N)=O [DEGARELIX] (Ac-[d2Nal][dPhe(4-Cl)][d3Pal]S[Phe(4-NH2)](Dihydroorotyl(S))[dPhe(4-NHCONH2)]L[Lys(iPr)]P[dA]-NH2) | -1 | -0.9 | -0.99 | -1 | – | – | – | – | – | – | – | – | – | – | – | – | – | – | – | – | –
2 | C[C@@H]1C[C@H]2[C@@H]3CCC4=CC(=O)C=C[C@]4(C)[C@@]3(F)[C@@H](O)C[C@]2(C)[C@@]1(O)C(=O)CO [DEXAMETHASONE] | 0.73 | – | 0.4 | 0.07 | 0.88 | 0.98 | 0.86 | 0.7 | 0.99 | -1 | 0.65 | 0.95 | – | – | – | – | – | – | – | – | –
3 | O=C(O)Cc1ccccc1Nc1c(Cl)cccc1Cl [DICLOFENAC] | 0.78 | 0.28 | – | – | 0.86 | – | – | – | – | -1 | 0.98 | – | 0.45 | 0.97 | – | – | – | – | – | – | –
4 | CN1C[C@H](C(=O)N[C@]2(C)O[C@@]3(O)[C@@H]4CCCN4C(=O)[C@H](Cc4ccccc4)N3C2=O)C[C@@H]2c3cccc4[nH]cc(c34)C[C@H]21.CS(=O)(=O)O [DIHYDROERGOTAMINE MESYLATE] | -0.33 | -0.55 | -0.57 | 0.01 | – | 0.96 | 0.98 | – | – | – | – | – | -0.38 | – | 0.44 | 0.95 | – | – | – | – | –
5 | C[S+](C)[O-] [DIMETHYL SULFOXIDE] | – | 0.18 | 0.62 | 0.71 | 0.29 | – | 0.93 | – | – | -0.56 | 0.93 | 0.98 | 0.67 | – | 0.96 | 0.94 | 0.81 | 0.86 | 0.98 | – | Growth Rate (Fibroblast; [7]): 0.93
6 | O=c1ccn([C@@H]2O[C@H](COP(=O)([O-])OP(=O)([O-])OP(=O)([O-])OP(=O)([O-])OC[C@H]3O[C@@H](n4ccc(=O)[nH]c4=O)[C@H](O)[C@@H]3O)[C@@H](O)[C@H]2O)c(=O)[nH]1.[Na+].[Na+].[Na+].[Na+] [DIQUAFOSOL TETRASODIUM] | 0.39 | – | 0.43 | -0.05 | – | 0.73 | 0.72 | 0.85 | 0.81 | – | – | 0.92 | 0.4 | 0.69 | 0.17 | 0.88 | – | – | 0.93 | 0.61 | Growth Rate (Fibroblast; [6]): 0.89; Growth Rate (HEK-293T; [8]): 0.63; Growth Rate (U2OS; [4]): 0.47
7 | C[C@]12N[C@H](Cc3ccccc31)c1ccccc12 [DIZOCILPINE] | – | 0.6 | – | – | 0.45 | – | – | – | 1 | – | 0.81 | 0.93 | – | – | 0.6 | 0.97 | 0.08 | – | – | – | Growth Rate (Fibroblast; [5]): 0.43; Growth Rate (Fibroblast; [6]): 0.25; Growth Rate (HEK-293T; [10]): 0.84; Growth Rate (HEK-293T; [9]): 0.88; Growth Rate (U2OS; [10]): 0.75; Growth Rate (U2OS; [7]): 0.98
8 | Cl.NCCc1ccc(O)c(O)c1 [DOPAMINE HYDROCHLORIDE] | 0.12 | 0.55 | 0.96 | 0.15 | – | 0.97 | – | – | – | – | – | – | – | 0.72 | 0.57 | 0.8 | – | 0.67 | 0.95 | 0.26 | Growth Rate (Fibroblast; [9]): 0.95; Growth Rate (U2OS; [4]): 0.79
9 | CC[C@H]1CN2CCc3cc(OC)c(OC)cc3[C@@H]2C[C@@H]1C[C@H]1NCCc2cc(OC)c(OC)cc21 [EMETINE] | – | 0.68 | – | – | -0.4 | -0.71 | -0.56 | -0.45 | -0.51 | -1 | 0.89 | 0.25 | 0.89 | -0.64 | 0.25 | 0.21 | -0.71 | -0.61 | 0 | -0.75 | Growth Rate (Fibroblast; [5]): -0.63; Growth Rate (Fibroblast; [9]): -0.61; Growth Rate (Fibroblast; [6]): -0.47; Growth Rate (Fibroblast; [7]): -0.61; Growth Rate (HEK-293T; [8]): -0.77; Growth Rate (HEK-293T; [10]): -0.68; Growth Rate (HEK-293T; [9]): -0.65; Growth Rate (U2OS; [4]): 0.43; Growth Rate (U2OS; [10]): 0.49; Growth Rate (U2OS; [7]): 0.17
10 | CNC[C@H](O)c1ccc(O)c(O)c1 [EPINEPHRINE] | 0.11 | -0.14 | 0.03 | 0.36 | – | 0.73 | 0.84 | – | – | – | 0.96 | 0.9 | – | 0.83 | 0.63 | 0.85 | – | – | 0.86 | – | Growth Rate (U2OS; [4]): 0.43; Growth Rate (U2OS; [10]): 0.71; Growth Rate (U2OS; [7]): 0.94
11 | NC(N)=Nc1nc(CSCCC(N)=NS(N)(=O)=O)cs1 [FAMOTIDINE] | 0.55 | 0.42 | – | – | – | 0.65 | – | 0.96 | – | -1 | – | – | – | 0.72 | 0.18 | – | 0.41 | 0.17 | – | 0.22 | Growth Rate (Fibroblast; [9]): 0.4; Growth Rate (Fibroblast; [7]): 0.89; Growth Rate (HEK-293T; [8]): 0.45; Growth Rate (HEK-293T; [9]): 0.89
12 | Cc1c(CC(=O)O)c2cccnc2n1Cc1ccc(S(C)(=O)=O)cc1C(F)(F)F [FEVIPIPRANT] | 0.42 | 0.97 | – | -0.75 | – | – | – | – | – | -1 | 0.82 | 0.93 | 0.79 | – | – | – | – | – | – | – | Growth Rate (U2OS; [7]): 0.88
13 | CCCCCCCCc1ccc(CCC(N)(CO)CO)cc1 [FINGOLIMOD] | – | – | – | – | -0.91 | -0.52 | -0.41 | -0.33 | -0.4 | – | -0.45 | – | – | -0.74 | -0.97 | -0.23 | -0.88 | -0.71 | 0.13 | -0.95 | Growth Rate (Fibroblast; [5]): -0.82; Growth Rate (Fibroblast; [9]): -0.59; Growth Rate (Fibroblast; [6]): -0.7; Growth Rate (Fibroblast; [7]): -0.42; Growth Rate (HEK-293T; [8]): -0.91; Growth Rate (HEK-293T; [10]): -0.63; Growth Rate (HEK-293T; [9]): -0.5; Growth Rate (U2OS; [4]): -0.74; Growth Rate (U2OS; [10]): -0.31; Growth Rate (U2OS; [7]): -0.13
